Assay results published in paper PMC12667995 (bioRxiv, 2025).

Key:
ProT3 = biological target: T1, ProT3 (Arabidopsis thaliana, UniProt Q9SJP9); assay: 3H-proline uptake and two-electrode voltage clamp, Xenopus laevis oocytes; assay type: cell-based; details: uptake: 0.5 uM 3H-L-proline, labelled compound, pH 5.0, 30 min; currents: 5 mM L-proline, pH 5.0, -60 mV
T1 sequence (Q9SJP9 1-436): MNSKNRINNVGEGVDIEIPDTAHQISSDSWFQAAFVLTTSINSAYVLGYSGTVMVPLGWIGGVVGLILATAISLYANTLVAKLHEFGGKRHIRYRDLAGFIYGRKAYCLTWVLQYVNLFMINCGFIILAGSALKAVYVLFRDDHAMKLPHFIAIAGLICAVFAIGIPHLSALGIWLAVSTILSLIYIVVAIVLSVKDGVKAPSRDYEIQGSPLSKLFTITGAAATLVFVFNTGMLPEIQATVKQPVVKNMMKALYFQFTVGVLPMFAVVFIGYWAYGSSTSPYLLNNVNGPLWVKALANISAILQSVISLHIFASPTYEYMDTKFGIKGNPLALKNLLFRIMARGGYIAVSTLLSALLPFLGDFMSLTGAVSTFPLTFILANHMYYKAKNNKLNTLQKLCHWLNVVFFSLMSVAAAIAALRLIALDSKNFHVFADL

ProT2 = biological target: T2, ProT2 (Arabidopsis thaliana, UniProt P92962); assay: as above; assay type: cell-based; details: uptake: 0.5 uM 3H-L-proline, labelled compound, pH 5.0, 30 min; currents: 5 mM L-proline, pH 5.0, -60 mV
T2 sequence (P92962 1-439): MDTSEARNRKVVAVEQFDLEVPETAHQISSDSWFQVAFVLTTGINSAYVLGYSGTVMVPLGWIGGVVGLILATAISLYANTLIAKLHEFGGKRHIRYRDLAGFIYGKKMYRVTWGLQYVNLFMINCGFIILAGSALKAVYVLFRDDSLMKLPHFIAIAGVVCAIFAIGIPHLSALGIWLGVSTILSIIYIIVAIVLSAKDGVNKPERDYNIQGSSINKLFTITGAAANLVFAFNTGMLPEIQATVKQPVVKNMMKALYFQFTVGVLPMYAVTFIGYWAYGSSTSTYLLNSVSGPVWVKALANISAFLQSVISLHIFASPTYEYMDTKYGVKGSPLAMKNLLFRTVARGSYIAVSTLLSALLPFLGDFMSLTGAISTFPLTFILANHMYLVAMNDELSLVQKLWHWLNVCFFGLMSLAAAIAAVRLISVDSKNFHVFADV

O=C(O)[C@@H]1CCCN1 [L-proline]
3H-proline uptake and two-electrode voltage clamp, Xenopus laevis oocytes (ProT3): Oocytes expressing ProT2 or ProT3 can import ^3H-proline into the cells from external buffer
3H-proline uptake and two-electrode voltage clamp, Xenopus laevis oocytes (ProT2): Oocytes expressing ProT2 or ProT3 can import ^3H-proline into the cells from external buffer
